Consider 37 compounds from patent US5229413A, “Compositions containing indole-2-carboxylate compounds for treatment of CNS disorders” (G. D. Searle & Co., priority 1992, dated 1993).

Experiment [1] has as its target T1, strychnineinsensitive glycine recognition site (NMDA receptor-ion channel complex) (Rattus norvegicus, UniProt P35439).
T1 construct: Synaptic plasma membranes (SPM) were prepared from rat forebrain; from tissue; host or cells: rat forebrain synaptic plasma membranes
As to the kind of experiment: Glycine binding assay, [3H]glycine, synaptic plasma membranes. As to the method:
Synaptic plasma membranes (SPM) were prepared from rat forebrain and stored as previously described [J. B. Monahan and J. Michel, J. Neurochem, 48, 1699-1708 (1987)]. Frozen membranes were thawed and diluted 1:20 with 0.04% triton X-100 in 50 mM tris/acetate (pH 7.4). Following incubation at 37° C. for 30 min., the SPM were collected by centrifugation at 95,000 X g for 15 min. The pellet was resuspended in 50 mM tris/acetate (pH 7.4, triton-free) and hand-homogenized five times. The membranes were again centrifuged as above. The pellet was washed two additional times with 50 mM tris/acetate (without homogenization) and centrifuged. The final pellet was resuspended with homogenization in 50 mM tris/acetate.
In the general receptor binding assay procedure, 10 nM [^3 H]glycine was added to the appropriate concentration of the test compounds and the assay initiated by the addition of 0.2-0.4 mg of ice cold SPM. The assay, which was done in 1.5 ml centrifuge tubes, was adjusted to a total volume of 1.0 ml with all additions being made in 50 mM tris/ acetate, pH 7.4 at 4° C. After a 10 minute incubation at 2° C., the samples were centrifuged for 15 min. at 12,000 g (4° C.) in a Beckman Microfuge 12. The supernatant was aspirated and the tube tip containing the pelleted membranes cut off and agitated in 0.5 ml of Beckman BTS-450 tissue solubilizer for a minimum of 6 hours at room temperature. Beckman MP scintillation cocktail (5 ml) containing 7 ml/liter acetic acid was then added and the samples counted on a Beckman LS 5800 liquid scintillation counter with automatic corrections for quenching and counting efficiency. […] The binding of [^3 H]glycine to the SPM was analyzed using Scatchard and Hill transformations and the Ki for other compounds was determined using logit-log analysis. Calculations and regression analysis were performed using templates developed for Lotus 123 as previously described [Pullan et al, Id.].

Experiment [2] addresses N-methyl-D-aspartate (NMDA) receptor site. Put plainly: Glutamate (NMDA) binding assay, L-[3H]glutamate, synaptic plasma membranes. To be noted: L-[3H]glutamate 12.5 nM, pH 7.4, 0-4° C.; read-out: Ki apparent, NMDA. As to the method: The purpose of this assay is to determine the binding affinity of a compound of Formula I for the N-methyl-D-aspartate (NMDA) receptor site. This procedure was carried out as follows:
Synaptic plasma membranes (SPM) were prepared as previously described [Monahan, J. B. and Michel, J., "Identification and Characterization of an N-methyl-D-aspartate-specific L-[^3 H]glutamate Recognition Site in Synaptic Plasma Membranes, J. Neurochem., 48, 1699-1708 (1987)]. The SPM were stored at a concentration of 10-15 mg/ml in 0.32 M sucrose, 0.5 mM EDTA, 1 mM MgSO4, 5 mM Tris/SO4, pH 7.4, under liquid nitrogen. The identity and purity of the subcellular fractions were confirmed by both electron microscopy and marker enzymes. Protein concentrations were determined by using a modification of the method of Lowry [Ohnishi, S. T. and Barr, J. K., "A Simplified Method of Quantitating Proteins Using the Biuret and Phenol Reagents", Anal. Biochem., 86, 193-197 (1978)]. The SPM were thawed at room temperature, diluted twenty-fold with 50 mM Tris/acetate, pH 7.4, incubated at 37° C. for 30 minutes, and centrifuged at 100,000 g for 15 minutes. The dilution, incubation, and centrifugation was repeated a total of three times. This general method involved adding 12.5 nM of the L-[^3 H]glutamate radioligand to the appropriate concentration of the test compound and initiating the assay by the addition of ice cold SPM (0.2-0.45 mg). The binding assays were performed in 1.5 ml centrifuge tubes with the total volume adjusted to 1.0 ml. Additions of test compounds were made in 50 mM Tris/acetate, pH 7.4 and incubations were carried out at 0°-4° C. The incubation time for the NMDA binding assay was 10 minutes. To terminate the incubation, the samples were centrifuged for 15 minutes at 12,000 g and 4° C. in a Beckman Microfuge 12. The supernatant was aspirated and the pelleted membranes dissolved in Beckman Ready-Protein scintillation cocktail and the samples counted on a Beckman LS 5800 or 3801 liquid scintillation counter with automatic corrections for quenching and counting efficiency. Nonspecific binding was defined as the residual binding in the presence of 0.5 mM NMDA and was typically 15-25% of the total binding in the NMDA binding assay. Radioligand binding to the SPM was analyzed using Scatchard and Hill transformations and the Ki values of the compounds determined using logit-log transformations. Calculations and regression analysis were performed using templates developed for Lotus 1, 2, 3 as previously described [Pullan, L. M. "Automated Radioligand Receptor Binding Analysis with Templates for Lotus", Computer Appln. Biosci., 3 131 (1987)]. Binding results are reported in Table II for example compounds of the invention.

Where [3] appears, read: 10 nM [3H]glycine, pH 7.4, rat forebrain SPM, read-out: Ki apparent, Gly.

Read-outs that look alike come from different tables or passages of the source.

Turning to `O=C(O)Cc1c(CO)[nH]c2cc(Cl)ccc12`, the Ki in experiment [1] (setting [3]) was over 30 µM. `O=C(O)Cc1c(C(=O)O)[nH]c2ccc(Cl)cc12` [Compound No. 3, 2-carboxy-5-chloro-3-indoleacetic acid]: the Ki in experiment [1] (setting [3]) is 11.7 µM; in experiment [2], over 100 µM. The matching figures for `O=C(O)c1[nH]c2cc(Cl)ccc2c1O` [Compound No. 11, 6-chloro-3-hydroxyindole-2-carboxylic acid]: over 100 µM and over 100 µM. For `O=C(O)c1[nH]c2ccccc2c1CO` [Compound No. 12, 3-hydroxymethylindole-2-carboxylic acid], in that order: over 100 µM and over 100 µM. The matching figures for `Cn1c(C(=O)O)c(CC(=O)O)c2ccccc21` [compound 2, 2-carboxy-1-methyl-3-indoleacetic acid]: over 100 µM and over 100 µM. As for `O=C(O)Cc1c(C(=O)O)[nH]c2ccc(Br)cc12` [compound 4, 5-bromo-2-carboxy-3-indoleacetic acid], the results for the Ki in experiment [1] (setting [3]) and in experiment [2] were 26.2 µM and over 100 µM, respectively.

On to `O=C(O)Cc1c(C(=O)O)[nH]c2ccc(F)cc12` [compound 5, 2-carboxy-5-fluoro-3-indoleacetic acid], for which the Ki in experiment [1] (setting [3]) was 17.5 µM; in experiment [2], over 100 µM. With `O=C(O)CCc1c(C(=O)O)[nH]c2ccccc12` [compound 7, 2-carboxy-3-indolepropanoic acid], the Ki in experiment [1] (setting [3]) and in experiment [2] was over 100 µM in each case. On to `O=C(O)CCCc1c(C(=O)O)[nH]c2ccccc12` [compound 8, 2-carboxy-3-indolebutanoic acid], for which the Ki in experiment [1] (setting [3]) and in experiment [2] was over 100 µM throughout. For the compound `O=C(O)CCCCc1c(C(=O)O)[nH]c2ccccc12` [compound 9, 2-carboxy-3-indolepentanoic acid], the Ki in experiment [1] (setting [3]) and in experiment [2] was over 100 µM each time. For the compound `CCC(C(=O)O)c1c(C(=O)O)[nH]c2ccccc12` (stereo not drawn) [compound 10, 2-(2-carboxy-3-indole)butanoic acid], the Ki in experiment [1] (setting [3]) and in experiment [2] was over 100 µM in each case. In the case of `O=C(O)c1cc2ccccc2[nH]1` [compound 13, indole-2-carboxylic acid], the Ki in experiment [1] and in experiment [2] was over 100 µM in each case. Consider `O=C(O)c1cc2cc(Cl)ccc2[nH]1` [compound 14, 5-chloroindole-2-carboxylic acid], for which the Ki in experiment [1] (setting [3]) and in experiment [2] was over 100 µM in each case. As for `O=C(O)c1cc2cc(F)ccc2[nH]1` [compound 15, 5-fluoroindole-2-carboxylic acid], the Ki in experiment [2] is over 100 µM. On to `O=C(O)c1cc2cc(Br)ccc2[nH]1` [compound 16, 5-bromoindole-2-carboxylic acid], for which the Ki in experiment [1] (setting [3]) and in experiment [2] was over 100 µM throughout.

In the case of `Cc1ccc2[nH]c(C(=O)O)cc2c1` [compound 17, 5-methylindole-2-carboxylic acid], the Ki in experiment [1] (setting [3]) and in experiment [2] was over 100 µM in each case. As for `O=C(O)c1[nH]c2ccccc2c1CCO` [compound 20, 3-(2-hydroxyethyl)indole-2-carboxylic acid], in experiment [1] (setting [3]), the Ki was over 10 µM. The same measure, in the same setting: the same measure for `Cc1cc2c(CC(=O)O)c(C(=O)O)[nH]c2cc1Cl` [compound 21, 2-carboxy-6-chloro-5-methylindole-3-acetic acid]: over 10 µM; for `CCOC(=O)Cc1c(C(=O)OCC)[nH]c2cc(Cl)ccc12` [compound 22, ethyl 2-carboethoxy-6-chloro-3-indoleacetate]: over 100 µM; for `O=C1OCCc2c1[nH]c1ccccc21` [compound 23, 4,9-dihydropyrano[3,4-b]indol-1(3H)-one]: over 100 µM. As to `O=Cc1c(C(=O)O)[nH]c2ccccc12` [compound 24, 3-formylindole-2-carboxylic acid], the Ki in experiment [2] is over 100 µM. For `CC(=O)Cc1c(C(=O)O)[nH]c2ccccc12` [compound 25, 3-(2-oxopropyl)indole-2-carboxylic acid], the Ki in experiment [1] (setting [3]) was over 30 µM. On the same count and under the same terms, under `O=C(O)c1cc2c(C(=O)O)cccc2[nH]1` [compound 26, 4-carboxyindole-2-carboxylic acid] stands over 20 µM. Still for that read-out and setting: the same measure for `O=C(O)c1cc2c(OCc3ccccc3)cccc2[nH]1` [compound 27, 4-benzyloxyindole-2-carboxylic acid]: over 20 µM; for `O=C(O)c1cc2c(O)cccc2[nH]1` [compound 28, 4-hydroxyindole-2-carboxylic acid]: over 20 µM. On the same count and under the same terms, under `O=C(O)Cc1c(C(=O)O)[nH]c2c(Cl)cccc12` [compound 29, 2-carboxy-7-chloroindole-3-acetic acid] stands over 30 µM.

For `CCOC(=O)Cc1c(C(=O)OCCCN(C)C)[nH]c2cc(Cl)ccc12` [compound 34, ethyl 2-(3-dimethylaminopropyloxycarbonyl)-6-chloro-3-indole acetate], the Ki in experiment [1] (setting [3]) is over 30 µM. Turning to `CN(C)C(=O)Cc1c(C(=O)O)[nH]c2cc(Cl)ccc12` [compound 36, 2-carboxy-6-chloro-3-indole acetic acid 3-dimethyl amide], in experiment [1] (setting [3]), the Ki was over 30 µM.

As to `O=C(Cc1c(C(=O)O)[nH]c2cc(Cl)ccc12)NCCO` [compound 39, 2-carboxy-6-chloro-3-indoleacetic acid 3-(2-hydroxyethyl)amide], the Ki in experiment [1] (setting [3]) stood at 11.4 µM.

For `CN(C)CCCNC(=O)Cc1c(C(=O)O)[nH]c2cc(Cl)ccc12` [compound 40, 2-carboxy-6-chloro-3-indoleacetic acid 3-(3-dimethylaminopropyl)amide], in experiment [1] (setting [3]), the Ki is over 30 µM. For the compound `CCCOC(=O)Cc1c(C(=O)O)[nH]c2cc(Cl)ccc12` [compound 42, propyl 2-carboxy-6-chloro-3-indoleacetate], the Ki in experiment [1] (setting [3]) is 7 µM. As to `O=C(Cc1c(C(=O)O)[nH]c2cc(Cl)ccc12)NCCc1ccccc1` [compound 45, 2-carboxy-6-chloro-3-indoleacetic acid 3-phenylethylamide], in experiment [1] (setting [3]), the Ki came to 0.47 µM.

With `CCOC(=O)c1[nH]c2cc(Cl)ccc2c1CCCl` [compound 47, ethyl 6-chloro-3-(2-chloroethyl)-2-indolecarboxylate], the Ki in experiment [1] (setting [3]) was over 10 µM. Same read-out and setting: under `CCOC(=O)Cc1c(C=O)[nH]c2cc(Cl)ccc12` [compound 51, ethyl 6-chloro-2-formyl-3-indole acetate] stands over 30 µM. Turning to `CCOC(=O)Cc1c(CO)[nH]c2cc(Cl)ccc12` [compound 52, ethyl 6-chloro-2-hydroxymethyl-3-indoleacetate], the Ki in experiment [1] (setting [3]) was over 30 µM. For `CN(C)CCNC(=O)Cc1c(C(=O)NCCN(C)C)[nH]c2cc(Cl)ccc12` [compound 54, 2-carboxy-6-chloro-3-indole acetic acid bis-2-dimethyl aminoethylamide], in experiment [1] (setting [3]), the Ki is over 30 µM. The same measure, in the same setting: the same measure for `CCOC(=O)c1[nH]c2cc(Cl)ccc2c1CC(N)=O` [compound 55, 2-carboethoxy-6-chloro-3-indoleacetamide]: over 30 µM.
